Drawing on ChEMBL document CHEMBL5325482, “Discovery of [11C]MK-8056: A Selective PET Imaging Agent for the Study of mGluR2 Negative Allosteric Modulators” (ACS Med Chem Lett, 2023), this text covers logD and Papp for 5 compounds.

A short description of series [1]: physchem. The conditions noted are these: PBS, pH 7.
The test system of series [2] is P-gp. Nature of the series: in vitro. Conditions: pig, LLC-PK1.
The test system of series [3] is P-gp. Nature of the series: in vitro. The conditions noted are these: pig, LLC-PK1. The source holds these as a separate data set.

What is called logD is the decadic logarithm of the distribution of all forms, ionised or not, between an organic phase and buffer at a given pH. `NC(=O)c1cc(-c2ccc(F)cc2)c2ccc(CN3C(=O)CCC3=O)cc2n1`: the logD in series [1] turned out to be 2.24.
By Papp is commonly meant a coefficient for how fast a substance crosses the barrier. A low value points to poor permeation. In the case of `NC(=O)c1cc(-c2ccc(F)cc2)c2ccc(CCc3cncnc3)cc2n1`, the Papp is 30 ×10⁻⁶ cm/s in series [2] and 28 ×10⁻⁶ cm/s in series [3]. The logD in series [1] came to 2.31.
For `NC(=O)c1cc(-c2ccc(F)cc2)c2ccc(CCc3cccnc3)cc2n1`, in that order: 21 ×10⁻⁶ cm/s, 22 ×10⁻⁶ cm/s and 2.85.
The corresponding values for `NC(=O)c1cc(-c2ccc(F)cc2)c2ccc(CCc3ccncc3)cc2n1` are 21 ×10⁻⁶ cm/s, 24 ×10⁻⁶ cm/s and 2.88.
`NC(=O)c1cc(-c2ccc(F)cc2)c2ccc(Cc3ccncc3)cc2n1`: the logD in series [1] came out at 2.7.
